We go through 23 molecules from patent publication US20110178064A1, “SPIRO CONDENSED […] DERIVATIVES FOR USE AS ANTIBACTERIAL” (A[…]&D, priority 2007, published 2011).

The target in the assay is Escherichia coli DNA gyrase A/B tetramer (Escherichia coli, UniProt P0AES4+P0AES6). As to the kind of experiment: DNA gyrase supercoiling activity fluorescence polarisation assay. Format: biochemical. In short, it runs like this:
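Gyrase supercoiling reactions quenched with 40 nM 5′-BODIPY-FL oligodeoxynucleotide triplex probe in pH 3.5 NaCl/sodium acetate buffer; fluorescence anisotropy read after 60 min (485/535 nm).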
In general terms: Polarisation of emitted light reports the rotation of a fluorescent probe.

Where [1] appears, read: E. coli DNA gyrase supercoiling, asterisk: no IC50 obtained at or below the indicated concentration, read-out: IC50.

Where two headings read alike, the source gives them in different places. A value given as a limit tells only on which side of the number the result lay.

Chain of Escherichia coli DNA gyrase A/B tetramer (P0AES4 whole entry, one chain of several): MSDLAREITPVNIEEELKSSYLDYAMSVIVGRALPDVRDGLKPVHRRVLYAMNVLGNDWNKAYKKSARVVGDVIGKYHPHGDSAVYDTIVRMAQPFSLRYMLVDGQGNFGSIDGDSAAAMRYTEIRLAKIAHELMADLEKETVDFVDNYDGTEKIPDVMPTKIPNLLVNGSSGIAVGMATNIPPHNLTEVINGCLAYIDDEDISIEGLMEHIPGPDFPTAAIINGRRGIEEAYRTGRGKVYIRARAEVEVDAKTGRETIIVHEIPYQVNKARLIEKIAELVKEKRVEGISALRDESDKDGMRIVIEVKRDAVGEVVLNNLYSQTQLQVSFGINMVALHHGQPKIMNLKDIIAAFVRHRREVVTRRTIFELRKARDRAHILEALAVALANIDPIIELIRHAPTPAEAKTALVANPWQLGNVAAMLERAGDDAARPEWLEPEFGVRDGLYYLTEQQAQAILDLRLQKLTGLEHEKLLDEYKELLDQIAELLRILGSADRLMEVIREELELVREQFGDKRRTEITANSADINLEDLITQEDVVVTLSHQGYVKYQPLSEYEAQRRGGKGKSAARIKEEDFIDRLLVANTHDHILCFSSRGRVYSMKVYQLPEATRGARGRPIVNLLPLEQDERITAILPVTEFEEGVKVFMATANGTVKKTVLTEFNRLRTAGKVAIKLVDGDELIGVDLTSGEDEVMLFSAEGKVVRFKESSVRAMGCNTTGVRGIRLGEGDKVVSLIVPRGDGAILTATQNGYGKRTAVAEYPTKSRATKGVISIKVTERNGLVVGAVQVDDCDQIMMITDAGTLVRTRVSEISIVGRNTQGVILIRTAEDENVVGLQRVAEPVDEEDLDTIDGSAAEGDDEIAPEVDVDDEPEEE

What is called IC50 is the concentration that inhibits the measured activity by half. As to `COc1nccnc1-c1cc2c(cn1)N1C[C@@H](C)O[C@@H](C)[C@@H]1C1(C2)C(=O)NC(=O)NC1=O` (relative stereo) [Example 93, (6aS,7S,9R)-rel-3-(3-Methoxypyrazin-2-yl)-7,9-dimethyl-6a,7,9,10-tetrahydro-2′H,5H-spiro[1,4-oxazino[4,3-a][1,7]naphthyridine-6,5′-pyrimidine]-2′,4′,6′(1′H, 3H)-trione], the IC50 under setting [1] is above 83 µM.

On to `C[C@@H]1CN2c3ncc(-c4ccnnc4)cc3CC3(C(=O)NC(=O)NC3=O)[C@H]2[C@H](C)O1` (relative stereo) [Example 94, (6aS,7S,9R)-rel-7,9-Dimethyl-3-(pyridazin-4-yl)-6a,7,9,10-tetrahydro-2′H,5H-spiro[1,4-oxazino[4,3-a][1,8]naphthyridine-6,5′-pyrimidine]-2′,4′,6′(1′H, 3H)-trione], for which, under setting [1], the IC50 stood at 7 µM. `C[C@@H]1CN2c3ccc(-c4ccnnc4)nc3CC3(C(=O)NC(=O)NC3=O)[C@H]2[C@H](C)O1` (relative stereo) [Example 95, (2R,4S,4aS)-rel-2,4-Dimethyl-8-(pyridazin-4-yl)-1,2,4,4a-tetrahydro-2′H,6H-spiro[1,4-oxazino[4,3-a][1,5]naphthyridine-5,5′-pyrimidine]-2′,4′,6′(1′H,3′H)-trione] yielded an IC50 of 2 µM.

Consider `C[C@@H]1CN2c3cnc(-c4ccnnc4)cc3CC3(C(=O)NC(=O)NC3=O)[C@H]2[C@H](C)O1` (relative stereo) [Example 96, (6aS,7S,9R)-rel-7,9-Dimethyl-3-(pyridazin-4-yl)-6a,7,9,10-tetrahydro-2′H,5H-spiro[1,4-oxazino[4,3-a][1,7]naphthyridine-6,5′-pyrimidine]-2′,4′,6′(1′H,3′H)-trione], for which the IC50 came out at 3 µM.

Turning to `C[C@@H]1CN2c3ncc(-c4ncco4)cc3CC3(C(=O)NC(=O)NC3=O)[C@H]2[C@H](C)O1` (relative stereo) [Example 97, (6aS,7S,9R)-rel-7,9-Dimethyl-3-(1,3-oxazol-2-yl)-6a,7,9,10-tetrahydro-2′H,5H-spiro[1,4-oxazino[4,3-a][1,8]naphthyridine-6,5′-pyrimidine]-2′,4′,6′(1′H,3′H)-trione], the IC50 came out at 44 µM. Still for that read-out and setting: to `C[C@@H]1CN2c3ccc(-c4ncco4)nc3CC3(C(=O)NC(=O)NC3=O)[C@H]2[C@H](C)O1` (relative stereo) [Example 98, (2R,4S,4aS)-rel-2,4-Dimethyl-8-(1,3-oxazol-2-yl)-1,2,4,4a-tetrahydro-2′H,6H-spiro[1,4-oxazino[4,3-a][1,5]naphthyridine-5,5′-pyrimidine]-2′,4′,6′(1′H,3′H)-trione] belongs 51 µM; to `C[C@@H]1CN2c3cnc(-c4ncco4)cc3CC3(C(=O)NC(=O)NC3=O)[C@H]2[C@H](C)O1` (relative stereo) [Example 99, (6aS,7S,9R)-rel-7,9-Dimethyl-3-(1,3-oxazol-2-yl)-6a,7,9,10-tetrahydro-2′H,5H-spiro[1,4-oxazino[4,3-a][1,7]naphthyridine-6,5′-pyrimidine]-2′,4′,6′(1′H,3′H)-trione], 44 µM.

As to `C[C@@H]1CN2c3ncc(-c4cscn4)cc3CC3(C(=O)NC(=O)NC3=O)[C@H]2[C@H](C)O1` (relative stereo) [Example 100, (6aS,7S,9R)-rel-7,9-Dimethyl-3-(1,3-thiazol-4-yl)-6a,7,9,10-tetrahydro-2′H,5H-spiro[1,4-oxazino[4,3-a][1,8]naphthyridine-6,5′-pyrimidine]-2′,4′,6′(1′H,3′H)-trione], it took 7 µM to reach half-maximal inhibition (IC50).

Molecule `C[C@@H]1CN2c3ccc(-c4cscn4)nc3CC3(C(=O)NC(=O)NC3=O)[C@H]2[C@H](C)O1` (relative stereo) [Example 101, (2R,4S,4aS)-rel-2,4-Dimethyl-8-(1,3-thiazol-4-yl)-1,2,4,4a-tetrahydro-2′H,6H-spiro[1,4-oxazino[4,3-a][1,5]naphthyridine-5,5′-pyrimidine]-2′,4′,6′(1′H,3′H)-trione] returned an IC50 of 2 µM. Same read-out and setting: as for `C[C@@H]1CN2c3cnc(-c4cscn4)cc3CC3(C(=O)NC(=O)NC3=O)[C@H]2[C@H](C)O1` (relative stereo) [Example 102, (6aS,7S,9R)-rel-7,9-Dimethyl-3-(1,3-thiazol-4-yl)-6a,7,9,10-tetrahydro-2′H,5H-spiro[1,4-oxazino[4,3-a][1,7]naphthyridine-6,5′-pyrimidine]-2′,4′,6′(1′H,3′H)-trione], the figure is 16 µM. The same measure, in the same setting: to `COc1cncc(-c2cnc3c(c2)CC2(C(=O)NC(=O)NC2=O)[C@H]2[C@H](C)O[C@H](C)CN32)n1` (relative stereo) [Example 103, (6aS,7S,9R)-rel-3-(6-Methoxypyrazin-2-yl)-7,9-dimethyl-6a,7,9,10-tetrahydro-2′H,5H-spiro[1,4-oxazino[4,3-a][1,8]naphthyridine-6,5′-pyrimidine]-2′,4′,6′(1′H,3′H)-trione] belongs 4 µM. On the same count and under the same terms, as for `COc1cncc(-c2ccc3c(n2)CC2(C(=O)NC(=O)NC2=O)[C@H]2[C@H](C)O[C@H](C)CN32)n1` (relative stereo) [Example 104, (2R,4S,4aS)-rel-8-(6-Methoxypyrazin-2-yl)-2,4-dimethyl-1,2,4,4a-tetrahydro-2′H,6H-spiro[1,4-oxazino[4,3-a][1,5]naphthyridine-5,5′-pyrimidine]-2′,4′,6′(1′H,3′H)-trione], the figure is 22 µM; as for `COc1nc(-c2cnc3c(c2)CC2(C(=O)NC(=O)NC2=O)[C@H]2[C@H](C)O[C@H](C)CN32)cs1` (relative stereo) [Example 107, (6aS,7S,9R)-rel-3-(2-Methoxy-1,3-thiazol-4-yl)-7,9-dimethyl-6a,7,9,10-tetrahydro-2′H,5H-spiro[1,4-oxazino[4,3-a][1,8]naphthyridine-6,5′-pyrimidine]-2′,4′,6′(1′H,3′H)-trione], 6 µM. On to `Cc1nc(C)c(-c2ccc3c(n2)CC2(C(=O)NC(=O)NC2=O)[C@H]2[C@H](C)O[C@H](C)CN32)s1` (relative stereo) [Example 109, (2R,4S,4aS)-rel-8-(2,4-Dimethyl-1,3-thiazol-5-yl)-2,4-dimethyl-1,2,4,4a-tetrahydro-2′H,6H-spiro[1,4-oxazino[4,3-a][1,5]naphthyridine-5,5′-pyrimidine]-2′,4′,6′(1′H,3′H)-trione], for which 14 µM corresponded to half-maximal inhibition (IC50).

For the molecule `C[C@@H]1CN2c3ncc(-c4ccc(N5CCOCC5)nc4)cc3CC3(C(=O)NC(=O)NC3=O)[C@H]2[C@H](C)O1` (relative stereo) [Example 111, (6aS,7S,9R)-rel-7,9-Dimethyl-3-[6-(morpholin-4-yl)pyridin-3-yl]-6a,7,9,10-tetrahydro-2′H,5H-spiro[1,4-oxazino[4,3-a][1,8]naphthyridine-6,5′-pyrimidine]-2′,4′,6′(1′H,3′H)-trione], the IC50 is 23 µM. Still for that read-out and setting: as for `C[C@@H]1CN2c3cnc(-c4ccc(N5CCOCC5)nc4)cc3CC3(C(=O)NC(=O)NC3=O)[C@H]2[C@H](C)O1` (relative stereo) [Example 112, (6aS,7S,9R)-rel-7,9-Dimethyl-3-[6-(morpholin-4-yl)pyridin-3-yl]-6a,7,9,10-tetrahydro-2′H,5H-spiro[1,4-oxazino[4,3-a][1,7]naphthyridine-6,5′-pyrimidine]-2′,4′,6′(1′H,3′H)-trione], the figure is above 83 µM; as for `C[C@@H]1CN2c3ncc(C#N)cc3CC3(C(=O)NC(=O)NC3=O)[C@H]2[C@H](C)O1` (relative stereo) [Example 113, (6aS,7S,9R)-rel-7,9-Dimethyl-2′,4′,6′-trioxo-1′,3′,4′,6′,6a,7,9,10-octahydro-2′H,5H-spiro[1,4-oxazino[4,3-a][1,8]naphthyridine-6,5′-pyrimidine]-3-carbonitrile], 22 µM. Still for that read-out and setting: to `C[C@@H]1CN2c3c(nc(Br)c(F)c3Cl)CC3(C(=O)NC(=O)NC3=O)[C@H]2[C@H](C)O1` (relative stereo) [Example 114, (2R,4S,4aS)-rel-8-Bromo-10-chloro-9-fluoro-2,4-dimethyl-2,4,4a,6-tetrahydro-1H,1′H-spiro[[1,4]oxazino[4,3-a][1,5]naphthyridine-5,5′-pyrimidine]-2′,4′,6′(3′H)-trione] belongs 2 µM; to `C[C@@H]1CN2c3cc(Cl)ncc3CC3(C(=O)NC(=O)NC3=O)[C@H]2[C@H](C)O1` (relative stereo) [Example 115, (2R,4S,4aS)-rel-9-chloro-2,4-dimethyl-1,2,4,4a-tetrahydro-2′H,6H-spiro[1,4-oxazino[4,3-a][1,6]naphthyridine-5,5′-pyrimidine]-2′,4′,6′(1′H,3′H)-trione], above 20 µM. The molecule `C[C@@H]1CN2c3cnc(-c4cccs4)cc3CC3(C(=O)NC(=O)NC3=O)[C@H]2[C@H](C)O1` (relative stereo) [Example 116, (6aS,7S,9R)-rel-7,9-dimethyl-3-(thiophen-2-yl)-6a,7,9,10-tetrahydro-1′H,5H-spiro[[1,4]oxazino[4,3-a][1,7]naphthyridine-6,5′-pyrimidine]-2′,4′,6′(3′H)-trione] had a half-maximal inhibitory concentration (IC50) of 33 µM. The same measure, in the same setting: to `C[C@@H]1CN2c3cnc(-c4ccn[nH]4)cc3CC3(C(=O)NC(=O)NC3=O)[C@H]2[C@H](C)O1` (relative stereo) [Example 118, (6aS,7S,9R)-rel-7,9-Dimethyl-3-(1H-pyrazol-5-yl)-6a,7,9,10-tetrahydro-2′H,5H-spiro[1,4-oxazino[4,3-a][1,7]naphthyridine-6,5′-pyrimidine]-2′,4′,6′(1′H,3′H)-trione] belongs 19 µM; to `C[C@H]1CN2c3ncc(-c4nnn(C)n4)cc3CC3(C(=O)NC(=O)NC3=O)[C@@H]2[C@@H](C)O1` (relative stereo) [Example 120(a), (6aR,7R,9S)-rel-7,9-Dimethyl-3-(2-methyl-2H-tetrazol-5-yl)-6a,7,9,10-tetrahydro-2′H,5H-spiro[1,4-oxazino[4,3-a][1,8]naphthyridine-6,5′-pyrimidine]-2′,4′,6′(1′H,3′H)-trione], 12 µM; to `C[C@H]1CN2c3ncc(-c4nnnn4C)cc3CC3(C(=O)NC(=O)NC3=O)[C@@H]2[C@@H](C)O1` (relative stereo) [Example 120(b), (6aR,7R,9S)-rel-7,9-Dimethyl-3-(1-methyl-1H-tetrazol-5-yl)-6a,7,9,10-tetrahydro-2′H,5H-spiro[1,4-oxazino[4,3-a][1,8]naphthyridine-6,5′-pyrimidine]-2′,4′,6′(1′H,3′H)-trione], 14 µM.
